Experiments:
Experiment in all cases: relative viability (nuclei count vs DMSO), 5 days (fraction); higher = more cells survive
[1] = compound: CC(C)C[C@H](NC(=O)[C@H](Cc1ccccc1)NC(=O)c1cnccn1)B(O)O [Bortezomib] + Cc1nc(Nc2ncc(C(=O)Nc3c(C)cccc3Cl)s2)cc(N2CCN(CCO)CC2)n1 [Dasatinib] (partner 0.075 µM)
Method in brief: (§1)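 After 5 days of treatment, lung cancer cells in 1536-well plates were fixed and stained in a single step (final 0.05% Triton X-100, 1% formaldehyde, 1 ug/ml Hoechst) and their nuclei counted on 4× images. Treatment had been applied by pin tool the day after seeding as one drug alone or as a fixed anchor-drug dose with five library-drug doses (not always all listed) in √10 steps. Relative viability is the nuclei count of treated wells divided by that of vehicle wells, and values are medians of duplicate plates.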

[2] = compound: COC1=CC(c2cc3ccccc3[nH]2)=N/C1=C\c1[nH]c(C)cc1C [Obatoclax] + CS(=O)(=O)CCNCc1ccc(-c2ccc3ncnc(Nc4ccc(OCc5cccc(F)c5)c(Cl)c4)c3c2)o1 [Lapatinib] (partner 2 µM)
Method in brief: as §1

[3] = compound: CC(C)C[C@H](NC(=O)[C@H](Cc1ccccc1)NC(=O)c1cnccn1)B(O)O [Bortezomib] + CS(=O)(=O)CCNCc1ccc(-c2ccc3ncnc(Nc4ccc(OCc5cccc(F)c5)c(Cl)c4)c3c2)o1 [Lapatinib] (partner 2 µM)
Method in brief: as §1

[4] = compound: CC1=CC(=NN1)NC2=CC(=NC(=N2)/C=C/C3=CC=CC=C3)N4CCN(CC4)C + O=C(CCCCCCC(=O)Nc1ccccc1)NO [Vorinostat] (partner 1 µM)
Method in brief: as §1

Cell Line | relative viability ([1]; first compound 0.0002 µM) | relative viability ([1]; first compound 0.000632 µM) | relative viability ([1]; first compound 0.002 µM) | relative viability ([1]; first compound 0.006325 µM) | relative viability ([1]; first compound 0.02 µM) | relative viability ([2]; first compound 0.01 µM) | relative viability ([2]; first compound 0.03162 µM) | relative viability ([2]; first compound 0.1 µM) | relative viability ([2]; first compound 0.3162 µM) | relative viability ([2]; first compound 1 µM) | relative viability ([3]; first compound 0.0002 µM) | relative viability ([3]; first compound 0.000632 µM) | relative viability ([3]; first compound 0.002 µM) | relative viability ([3]; first compound 0.006325 µM) | relative viability ([3]; first compound 0.02 µM) | relative viability ([4]; first compound 0.08 µM) | relative viability ([4]; first compound 0.253 µM) | relative viability ([4]; first compound 0.8 µM) | relative viability ([4]; first compound 2.53 µM) | relative viability ([4]; first compound 8 µM)
NCI-H3122 | 0.878 | 0.873 | 0.901 | 0.233 | 0.0847 | 0.987 | 1.05 | 0.964 | 1.03 | 1.03 | 0.943 | 1.01 | 1.01 | 0.902 | 0.202 | 1.03 | 0.977 | 0.989 | 0.879 | 0.511
NCI-H1651 | 0.387 | 0.442 | 0.153 | 0.105 | 0.0988 | 0.645 | 0.764 | 0.744 | 0.664 | 0.341 | 0.709 | 0.74 | 0.301 | 0.128 | 0.103 | 0.349 | 0.529 | 0.464 | 0.497 | 0.145
ABC-1 | 0.6 | 0.317 | 0.243 | 0.224 | 0.233 | 0.87 | 1.15 | 1.25 | 1.04 | 1.33 | 0.941 | 1.06 | 0.605 | 0.606 | 0.495 | 1.01 | 1.19 | 1.31 | 0.392 | 0.225
NCI-H2126 | 0.58 | 0.607 | 0.662 | 0.254 | 0.2 | 0.736 | 0.733 | 0.809 | 0.739 | 0.802 | 0.762 | 0.757 | 0.762 | 0.727 | 0.595 | 0.816 | 0.82 | 0.834 | 0.674 | 0.202
RERF-LC-KJ | 0.833 | 0.695 | 0.946 | 0.219 | 0.234 | 0.837 | 0.832 | 0.843 | 0.831 | 0.859 | 0.82 | 0.91 | 0.846 | 0.653 | 0.242 | 0.523 | 0.73 | 0.577 | 0.406 | 0.301
NCI-H1666 | 0.759 | 0.845 | 0.837 | 0.329 | 0.326 | 0.868 | 0.682 | 0.469 | 0.273 | 0.291 | 0.611 | 0.883 | 0.841 | 0.194 | 0.187 | 1.05 | 0.992 | 0.926 | 1.12 | 0.802
PC-14 | 0.294 | 0.236 | 0.168 | 0.028 | 0.0371 | 0.297 | 0.309 | 0.334 | 0.257 | 0.301 | 0.323 | 0.356 | 0.354 | 0.239 | 0.0862 | 0.673 | 0.732 | 0.491 | 0.0475 | 0.041
NCI-H1915 | 0.234 | 0.329 | 0.315 | 0.128 | 0.0542 | 1.03 | 0.879 | 0.852 | 0.978 | 0.925 | 0.94 | 0.944 | 0.932 | 0.973 | 0.0577 | 0.493 | 0.584 | 0.467 | 0.376 | 0.116
NCI-H661 | 0.851 | 0.836 | 0.773 | 0.331 | 0.168 | 0.421 | 0.47 | 0.539 | 0.474 | 0.611 | 0.458 | 0.512 | 0.406 | 0.297 | 0.18 | 0.784 | 0.854 | 0.562 | 0.348 | 0.311
NCI-H2170 | 0.546 | 0.378 | 0.502 | 0.16 | 0.144 | 0.281 | 0.247 | 0.304 | 0.253 | 0.306 | 0.253 | 0.266 | 0.306 | 0.266 | 0.2 | 0.867 | 0.921 | 0.65 | 0.211 | 0.153
HCC-78 | 0.354 | 0.385 | 0.291 | 0.422 | 0.274 | 0.937 | 0.64 | – | 0.579 | 0.844 | 0.899 | 0.791 | 0.715 | 0.826 | 0.153 | 0.465 | 0.518 | 0.461 | 0.372 | 0.246
PC-3 [JPC-3] | 0.961 | 0.994 | 0.991 | 0.199 | 0.106 | 0.456 | 0.406 | 0.469 | 0.443 | 0.457 | 0.469 | 0.453 | 0.49 | 0.364 | 0.16 | 0.766 | 0.876 | 0.814 | 0.543 | 0.333
EKVX | 0.544 | 0.526 | 0.707 | 0.397 | 0.185 | 0.208 | 0.19 | 0.215 | 0.199 | 0.189 | 0.205 | 0.261 | 0.208 | 0.204 | 0.0816 | 0.702 | 0.82 | 0.794 | 0.571 | 0.289
NCI-H460 | 0.437 | 0.507 | 0.514 | 0.342 | 0.0305 | 1 | 1.06 | 0.806 | 0.0507 | 0.0208 | 0.879 | 0.975 | 1.03 | 0.0212 | 0.014 | 0.673 | 0.755 | 0.382 | 0.0404 | 0.0188
NCI-H1793 | 0.35 | 0.324 | 0.381 | 0.361 | 0.168 | 0.802 | 0.68 | 0.61 | 0.717 | 0.836 | 0.683 | 0.624 | 0.868 | 0.466 | 0.154 | 0.544 | 0.77 | 0.78 | 0.124 | 0.0909
NCI-H727 | 0.369 | 0.38 | 0.415 | 0.184 | 0.147 | 0.949 | 0.792 | 0.798 | 0.715 | 0.457 | 0.654 | 0.872 | 0.864 | 0.229 | 0.113 | 0.86 | 0.882 | 1.32 | 1.02 | 0.523

Source: the supplement of paper PMC10307832
